The structures appear in SMILES notation.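 A five-concentration, 48-hour dose response in 96-well plates underlies each endpoint, interpolated linearly between surrounding concentrations. At the GI50, growth is halved.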 Active and inactive are the calls of the source. Cut-off read from the data, not from the text of the source: active = GI50 up to about 1.1 µM and inactive = higher. Where a SMILES comes first, the peptide text is derived from it. [ ]: non-standard residue; d: D form. The star is where a group is joined. Hyp = O=C(O)[CH]1C[CH](O)CN1; Cbz = O=C(OCc1ccccc1)* Bounds are passed on as bounds.

Among the test systems are BT-549; CAKI-1; DU-145; EKVX; HCT-116; HT-29; Hs-578T; K562; KM12; M14; MCF7; MOLT-4; NCI-H226; NCI/ADR-RES; OVCAR-5; SK-MEL-2; SNB-19; TK-10; UACC-62; HL-60.
Common to all, as to test: NCI anticancer screen, dose series, 48 h

Regarding `O=c1[nH]nc(-c2ccccc2)n1-n1cccc1`, the GI50 in the experiment on BT-549, with CAKI-1, in the experiment on DU-145, with EKVX, in the experiment with HCT-116 and with HT-29 was > 100 µM (inactive) throughout. Besides, the GI50 is > 100 µM (inactive) with Hs-578T; > 100 µM (inactive) in the experiment with K562; > 100 µM (inactive) with KM12; > 100 µM (inactive) in the experiment with M14; > 100 µM (inactive) with MCF7; 35.6 µM (inactive) in the experiment on MOLT-4. The GI50 in the experiment on NCI-H226, in the experiment with NCI/ADR-RES, in the experiment on OVCAR-5, in the experiment on SK-MEL-2, in the experiment on SNB-19 and in the experiment with TK-10 was > 100 µM (inactive) in each case. Also, in the experiment on UACC-62, the GI50 is > 100 µM (inactive).
Consider `CCNC1=C(NC(=O)CCl)C(=O)c2ccccc2C1=O`, for which the GI50 in the experiment with BT-549 was > 10 µM (inactive); in the experiment on DU-145 it was > 10 µM (inactive); in the experiment on EKVX it was 16 µM (inactive); with HCT-116, 18.4 µM (inactive); in the experiment with HL-60, 34.1 µM (inactive); in the experiment with HT-29, > 10 µM (inactive). Moreover, the GI50 in the experiment with Hs-578T is 24.2 µM (inactive); in the experiment on K562, 25.5 µM (inactive); in the experiment with KM12 it was 17.1 µM (inactive); in the experiment on M14 it was 20.9 µM (inactive); in the experiment with MCF7 it was 22.4 µM (inactive); with MOLT-4, 18.2 µM (inactive). The GI50 in the experiment with NCI-H226 was 22 µM (inactive); with NCI/ADR-RES, 23.6 µM (inactive); in the experiment on OVCAR-5, 19.6 µM (inactive); with SNB-19, 26.7 µM (inactive); in the experiment with TK-10, 17.7 µM (inactive).
As for `Cc1nn(C(=O)c2ccncc2)c2c1C(c1ccc([N+](=O)[O-])cc1)SC(=N)N2` (configuration not stated), the GI50 in the experiment with BT-549, in the experiment with DU-145, with EKVX, with HCT-116, with HL-60 and in the experiment with HT-29 was > 100 µM (inactive) throughout. Moreover, the GI50 with Hs-578T, in the experiment on K562, in the experiment with KM12, in the experiment with M14, in the experiment with MCF7 and with MOLT-4 was > 100 µM (inactive) each time. For the same molecule, the GI50 in the experiment on NCI-H226, in the experiment on NCI/ADR-RES, in the experiment with OVCAR-5, in the experiment with SK-MEL-2, in the experiment on SNB-19 and in the experiment with TK-10 was > 100 µM (inactive) in each case. Further, the GI50 in the experiment with UACC-62 was > 100 µM (inactive).
In the case of `Oc1nc(S)nc2c1CN(CCCN1CCOCC1)CN2`, the GI50 with BT-549 was 75.2 µM (inactive); in the experiment on CAKI-1, 30.4 µM (inactive); in the experiment with DU-145 it was 34.2 µM (inactive); in the experiment on EKVX, > 100 µM (inactive); in the experiment on HCT-116, 34.4 µM (inactive); in the experiment on HT-29, 35.9 µM (inactive). Further, the GI50 with Hs-578T is > 100 µM (inactive); with K562, 67.9 µM (inactive); in the experiment with KM12, 28.2 µM (inactive); in the experiment with M14, 25.5 µM (inactive); in the experiment on MCF7 it was 34.7 µM (inactive); in the experiment on MOLT-4 it was 28.2 µM (inactive). The GI50 is > 100 µM (inactive) with NCI-H226; 37.8 µM (inactive) in the experiment with NCI/ADR-RES; > 100 µM (inactive) in the experiment on OVCAR-5; 19.9 µM (inactive) in the experiment with SK-MEL-2; > 100 µM (inactive) in the experiment with SNB-19; 56.6 µM (inactive) in the experiment with TK-10. Further, in the experiment with UACC-62, the GI50 was 19.7 µM (inactive).
`CCCCCCCCCCCCCC/C(C(=O)O)=C(\C)C(=O)O`: the GI50 in the experiment with BT-549 is > 100 µM (inactive); in the experiment on DU-145, > 100 µM (inactive); with EKVX, > 100 µM (inactive); in the experiment on HCT-116 it was > 100 µM (inactive); in the experiment on HL-60 it was 58.3 µM (inactive); with HT-29, > 100 µM (inactive). In addition, the GI50 with Hs-578T, in the experiment with K562, in the experiment on KM12, in the experiment with M14, in the experiment with MCF7 and with MOLT-4 was > 100 µM (inactive) each time. In addition, the GI50 in the experiment with NCI-H226 was > 100 µM (inactive); in the experiment with NCI/ADR-RES, 97.7 µM (inactive); in the experiment with OVCAR-5, > 100 µM (inactive); with SK-MEL-2, > 100 µM (inactive); with SNB-19 it was > 100 µM (inactive); in the experiment on TK-10, > 100 µM (inactive). Also, the GI50 in the experiment on UACC-62 was > 100 µM (inactive).
Take `COc1ccc2cc(C(=O)O)ccc2c1OC`: the GI50 is > 100 µM (inactive) in the experiment on BT-549; > 100 µM (inactive) in the experiment with CAKI-1; 69.5 µM (inactive) in the experiment with DU-145; > 100 µM (inactive) in the experiment with HCT-116; > 100 µM (inactive) in the experiment on HL-60; > 100 µM (inactive) with HT-29. Moreover, the GI50 with Hs-578T, in the experiment with K562, in the experiment with KM12, with M14, in the experiment on MCF7 and in the experiment with MOLT-4 was > 100 µM (inactive) in each case. The GI50 in the experiment with NCI-H226, in the experiment with NCI/ADR-RES, in the experiment with OVCAR-5, with SK-MEL-2, with SNB-19 and with UACC-62 was > 100 µM (inactive) in each case.
On to `COCc1nc(C#N)c(N)o1`, for which the GI50 with BT-549, in the experiment on CAKI-1, in the experiment with DU-145, in the experiment with EKVX, with HCT-116 and in the experiment with HL-60 was > 10 µM (inactive) throughout. For the same molecule, the GI50 in the experiment on HT-29, with Hs-578T, in the experiment on K562, with KM12, in the experiment on M14 and with MCF7 was > 10 µM (inactive) in each case. Moreover, the GI50 in the experiment with MOLT-4, with NCI-H226, in the experiment on NCI/ADR-RES, in the experiment with SNB-19, with TK-10 and in the experiment on UACC-62 was > 10 µM (inactive) each time.
Take `CCOc1ccc(NCc2cc(OC)c(OC)c(OC)c2)cc1`: the GI50 is 0.12 µM (active) with BT-549; 2.57 µM (inactive) in the experiment with DU-145; 34.9 µM (inactive) with EKVX; 0.427 µM (active) in the experiment with HCT-116; 0.257 µM (active) in the experiment with HL-60; 0.366 µM (active) in the experiment on HT-29. Moreover, the GI50 in the experiment with Hs-578T was 1.38 µM (inactive); in the experiment with K562, 0.215 µM (active); in the experiment with KM12, 0.276 µM (active); with M14 it was 0.371 µM (active); in the experiment with MCF7, 0.435 µM (active); in the experiment on MOLT-4 it was 0.582 µM (active). The GI50 with NCI-H226 was 10.3 µM (inactive); with NCI/ADR-RES, 0.324 µM (active); in the experiment with SNB-19, 1.95 µM (inactive); in the experiment on UACC-62, 0.423 µM (active).
As for `c1cc(-c2ccc(-c3ccc(-c4ccc(-c5cccc6nsnc56)[nH]4)c4nsnc34)[nH]2)c2nsnc2c1`, the GI50 is > 100 µM (inactive) with BT-549; > 100 µM (inactive) in the experiment with DU-145; > 100 µM (inactive) in the experiment with EKVX; > 100 µM (inactive) with HCT-116; 1.53 µM (inactive) in the experiment on HL-60; > 100 µM (inactive) in the experiment with HT-29. Besides, the GI50 in the experiment on Hs-578T, in the experiment with K562, in the experiment on KM12, in the experiment on M14, in the experiment on MCF7 and in the experiment with MOLT-4 was > 100 µM (inactive) throughout. The GI50 in the experiment with NCI-H226, in the experiment on NCI/ADR-RES, in the experiment with OVCAR-5, with SK-MEL-2, with SNB-19 and in the experiment on TK-10 was > 100 µM (inactive) throughout. For the same molecule, the GI50 in the experiment with UACC-62 was > 100 µM (inactive).
For `NC(=O)CNC(=O)C1CC(O)CN1C(=O)C1CCCN1C(=O)OCc1ccccc1` (stereo not drawn) (Cbz-Pro-[Hyp]-Gly-NH2; configuration not given here), the GI50 with BT-549, in the experiment with DU-145, with EKVX, in the experiment on HCT-116, with HL-60 and in the experiment with HT-29 was > 100 µM (inactive) throughout. Besides, the GI50 in the experiment on Hs-578T, in the experiment on K562, in the experiment with KM12, with M14, in the experiment on MCF7 and in the experiment with MOLT-4 was > 100 µM (inactive) in each case. Moreover, the GI50 with NCI-H226, with NCI/ADR-RES, in the experiment with OVCAR-5, with SK-MEL-2, in the experiment on SNB-19 and with TK-10 was > 100 µM (inactive) each time. Also, the GI50 in the experiment with UACC-62 is > 100 µM (inactive).
As for `Nc1nonc1-c1noc(-c2nonc2N)[n+]1[O-]`, the GI50 was 64.1 µM (inactive) in the experiment with BT-549; 18.4 µM (inactive) in the experiment on CAKI-1; > 100 µM (inactive) with DU-145; 30.8 µM (inactive) in the experiment on EKVX; > 100 µM (inactive) in the experiment on HCT-116; 16 µM (inactive) in the experiment with HT-29. Also, the GI50 in the experiment with Hs-578T is > 100 µM (inactive); with K562, 41 µM (inactive); with KM12, 58.9 µM (inactive); with M14, 29.6 µM (inactive); with MCF7, 33.3 µM (inactive); in the experiment with MOLT-4 it was 54.6 µM (inactive). Further, the GI50 with NCI-H226 was 49.5 µM (inactive); in the experiment on NCI/ADR-RES, 69.2 µM (inactive); in the experiment on OVCAR-5, 33.7 µM (inactive); with SK-MEL-2, > 100 µM (inactive); in the experiment on SNB-19, > 100 µM (inactive); with TK-10 it was 43 µM (inactive). Also, the GI50 in the experiment with UACC-62 is 66.7 µM (inactive).

Values taken from ChEMBL document CHEMBL1201862, “PubChem BioAssay data set” (2004).
